Literature values in the PKSmart pharmacokinetics tables (Seal et al. 2025).

How the values were obtained:
[1] = Lombardo et al. 2013, J Clin Pharmacol 53:178, doi 10.1177/0091270012440282; details: for fraction unbound: plasma; for Vd / clearance: in vivo, iv
[2] = Lombardo, Berellini, Obach 2018, Drug Metab Dispos 46:1466, doi 10.1124/dmd.118.082966; details: human; for fraction unbound: plasma; for MRT / Vd / clearance / half-life: in vivo, iv

Row | SMILES | fraction unbound ([1]; rat) | fraction unbound [2] | Vd ([1]; dog) | clearance ([1]; dog) | fraction unbound ([1]; dog) | Vd ([1]; monkey) | clearance ([1]; monkey) | fraction unbound ([1]; monkey) | Vd ([1]; rat) | clearance ([1]; rat) | MRT [2] | Vd [2] | clearance [2] | half-life [2]
1 | COc1ccc2c3c1OC1C(=O)CC[C@@]4(O)[C@@H](C2)N(C)CC[C@]314 (some centres not stated) | 0.87 | 0.55 | – | – | – | – | – | – | – | – | – | – | – | –
2 | CCCCN1CCCCC1C(=O)Nc1c(C)cccc1C (configuration not stated) | 0.23 | 0.043 | 0.7 L/kg | 32 mL/min/kg | 0.11 | 0.66 L/kg | 10 mL/min/kg | 0.051 | 2.4 L/kg | 76 mL/min/kg | 2.12 h | 0.665 L/kg | 6.5 mL/min/kg | 1.95 h
3 | CCn1cc(C(=O)O)c(=O)c2cc(F)c(N3CCNCC3)nc21 | – | 0.8 | – | – | – | – | – | – | 1.8 L/kg | 42.7 mL/min/kg | 6.2 h | 2 L/kg | 5.4 mL/min/kg | 5.1 h
4 | Cc1nc2sccn2c(=O)c1CCN1CCC(=C(c2ccc(F)cc2)c2ccc(F)cc2)CC1 | 0.015 | 0.008 | – | – | – | – | – | – | 8 L/kg | 26.7 mL/min/kg | 46.1 h | 1.41 L/kg | 0.51 mL/min/kg | 40 h
5 | Nc1ccn([C@@H]2CO[C@H](CO)O2)c(=O)n1 | – | – | – | – | – | – | – | – | 1.42 L/kg | 23 mL/min/kg | 6.9 h | 1 L/kg | 2.4 mL/min/kg | 82 h
6 | COc1cccc2c1C(=O)c1c(O)c3c(c(O)c1C2=O)C[C@@](O)(C(=O)CO)C[C@@H]3O[C@H]1C[C@H](N)[C@H](I)[C@H](C)O1 | – | – | 2.6 L/kg | 6.5 mL/min/kg | – | 14 L/kg | 43.3 mL/min/kg | – | 14 L/kg | 36.6 mL/min/kg | 6.4 h | 53.6 L/kg | 140 mL/min/kg | 10.3 h
7 | CC(=O)Oc1ccccc1C(=O)O | – | 0.68 | – | – | – | – | – | – | 0.4 L/kg | 87 mL/min/kg | 0.3 h | 0.22 L/kg | 12 mL/min/kg | 0.26 h
8 | NCc1ccccc1CC(=O)NC1C(=O)N2C(C(=O)O)=C(CSc3nnnn3CC(=O)O)CS[C@H]12 (some centres not stated) | – | 0.19 | 0.5 L/kg | 6.5 mL/min/kg | – | – | – | – | 0.5 L/kg | 5.4 mL/min/kg | 4.3 h | 0.17 L/kg | 0.66 mL/min/kg | 3 h
9 | CC[C@@]1(O)C(=O)OCc2c1cc1n(c2=O)Cc2cc3c(N)cccc3nc2-1 | – | 0.003 | – | – | – | – | – | – | 5 L/kg | 150 mL/min/kg | 5.6 h | 2.2 L/kg | 6.5 mL/min/kg | 7 h
10 | O=P1(N(CCCl)CCCl)NCCCO1 (configuration not stated) | – | – | 0.7 L/kg | 20 mL/min/kg | – | – | – | – | 0.67 L/kg | 11.1 mL/min/kg | 11 h | 0.73 L/kg | 1.1 mL/min/kg | 8 h
11 | Cc1cc(=O)n(-c2ccccc2)n1C | 1 | – | 0.09 L/kg | 6.3 mL/min/kg | 0.6 | 0.74 L/kg | 4.6 mL/min/kg | 0.908 | 0.81 L/kg | 9.1 mL/min/kg | 20 h | 0.77 L/kg | 0.64 mL/min/kg | 12 h
12 | Nc1[nH]c(=O)ncc1F | – | – | 0.64 L/kg | 2.4 mL/min/kg | – | – | – | – | – | – | 5.7 h | 0.68 L/kg | 2 mL/min/kg | 4.2 h
13 | C=CC1=C(C(=O)O)N2C(=O)C(=NC(=O)C(NOCC(=O)O)c3csc(N)n3)[C@H]2SC1 (some centres not stated) | 0.4 | – | 0.24 L/kg | 0.4 mL/min/kg | 0.07 | – | – | – | 0.4 L/kg | 6 mL/min/kg | – | 0.24 L/kg | 1 mL/min/kg | 3.2 h
14 | Cc1ncc([N+](=O)[O-])n1CCO | – | – | 0.1 L/kg | 2.5 mL/min/kg | 0.983 | – | – | – | 1.2 L/kg | 5.8 mL/min/kg | 7.8 h | 0.4 L/kg | 0.85 mL/min/kg | 7.1 h
15 | CCOC(=O)c1ncn2c1CN(C)C(=O)c1cc(F)ccc1-2 | – | – | 1 L/kg | 16 mL/min/kg | 0.685 | – | – | – | 1.3 L/kg | 147 mL/min/kg | 1 h | – | 16 mL/min/kg | 0.78 h
16 | CC(C)C[C@H](NC(=O)C(NC(=O)c1cccc(-c2ccccc2)n1)[C@@H](C)O)B(O)O (some centres not stated) | – | – | – | – | – | – | – | – | 18.1 L/kg | 3.17 mL/min/kg | 50.6 h | 0.87 L/kg | 0.29 mL/min/kg | 42.1 h
17 | CC1=NC(=O)[C@](CCN(C(C)C)C(C)C)(c2ccccc2)[C@H]2CCCCN12 | 0.63 | 0.7 | 1.3 L/kg | 12 mL/min/kg | 0.618 | 1.6 L/kg | 20 mL/min/kg | 0.656 | 4.2 L/kg | 48 mL/min/kg | 1.58 h | 0.58 L/kg | 6.79 mL/min/kg | 1.89 h
18 | COc1nc(C)nc(Cl)c1NC1=NCCN1 | – | – | – | – | – | – | – | – | 3.2 L/kg | 50.1 mL/min/kg | 2.7 h | 1.8 L/kg | 11 mL/min/kg | 2.2 h
19 | CC(C)Oc1ccccc1N1CCN(Cc2cccc(C(=O)N3CCCCC3)c2)CC1 | 0.03 | – | – | – | – | – | – | – | 1.73 L/kg | 39.2 mL/min/kg | 4.2 h | 1.54 L/kg | 6.17 mL/min/kg | 4.6 h
20 | CC(C)N(CCC(C(N)=O)(c1ccccc1)c1ccccn1)C(C)C (configuration not stated) | – | 0.16 | 1.27 L/kg | 9.87 mL/min/kg | – | – | – | – | – | 34 mL/min/kg | 9.6 h | 0.52 L/kg | 0.9 mL/min/kg | 7 h
21 | Cc1ncc2n1-c1ccc(Cl)cc1C(c1ccccc1F)=NC2 | 0.04 | – | 1.1 L/kg | 35.2 mL/min/kg | 0.0223 | 3 L/kg | 22.3 mL/min/kg | 0.146 | 2.6 L/kg | 90 mL/min/kg | 3.5 h | 1.1 L/kg | 5.3 mL/min/kg | 3.1 h
22 | CC(C)NCC(O)COc1ccc(COCCOC(C)C)cc1 (configuration not stated) | 0.85 | – | 3.5 L/kg | 7.9 mL/min/kg | – | 3 L/kg | 12 mL/min/kg | – | 1.4 L/kg | 13 mL/min/kg | – | 2.4 L/kg | 3.7 mL/min/kg | 10 h
